Experiments:
[1] = tested on: acute respiratory infections; experiment: Prophylaxis of respiratory infection in athletes in training, intranasal L-Glu-L-Trp; type: in vivo, human; conditions: for B-Lymphocytes / B-Lymphocytes % Normal Value / B-Lymphocytes (%) / Blasts w/Con-A / Blasts w/PHA / C3 / Eosinophils / Eosinophils (%) / Eosinophils, % Normal Value / Granulocyte Cationic Proteins / IgA / IgA % Normal Value / IgG / IgG % Normal Value / IgM / IgM % Normal Value / Leukocytes / Leukocytes % Normal Value / Leukocytes, Ratio Post-Treat/Pre-Treat Value / Lymphocytes / Lymphocytes % Normal Value / Lymphocytes, % / Monocytes / Monocytes, % / Monocytes, % Normal Value / Neutrophils / Neutrophils, % / Neutrophils, % Normal Value / Phagocytosis (yeast) / Salivary IgM / Salivary Lysozyme / Salivary Secretory IgA / Serum Lysozyme / Serum β-Lysin / T-Lymphocytes / T-Lymphocytes % Normal Value / T-Lymphocytes (%) / T-helper (CD4+) / T-helper (CD4+), % / T-helper (CD4+), % Normal Value / T-suppressor (CD8+) / T-suppressor (CD8+), % / T-suppressor (CD8+), % Normal Value / Total Salivary IgA: After L-Glu-L-Trp
[2] = tested on: peripheral blood lymphocytes; experiment: Protocol A3 Group 1A: chronic pyoderma; type: in vivo, human
Excerpt: Group 1A (a subgroup of Group 1) consisted of 32 patients (17 males and 15 females ranging from 17 to 42 years of age) with chronic pyococcal skin diseases including furunculosis, disseminated impetigo, multiple ecthymas, recurring osteofolliculitis, seborrhea adiposa, and concrete seborrhea complicated by vulgar or abscessing acne. Diseases were characterized by a chronic course or frequent relapses, and at the time of presentation for entry into the trial, all patients had received several prior courses of antibiotic therapy, none of which led to any detectable clinical improvement. Patients in Group 1A were randomly divided into two treatment groups, the first consisting of 16 patients treated with L-Glu-L-Trp according to Therapy A, below, and the second consisting of 16 patients treated (as a control) according to conventional therapeutic methods- i.e., Therapy B (below).
In treatment Protocol A, all patients received L-Glu-L-Trp in combination with antibiotics.
Therapy B (conventional therapy control): All patients in this protocol received the same antibiotics as in Therapy A and a nonspecific stimulatory agent, i.e., Thymogenin instead of L-Glu-L-Trp.
Local antibiotics were administered as follows: Ampicillin (4), oxacillin (4), Levomycetin (1), tetracycline (9), Rondomycin (2), deoxycycline (8), cephalexin (2), and Rifampicin (1).

[3] = Survival in LPS-induced endotoxic shock; type: in vivo, CBA mice; conditions: 100 μg/kg prophylactic
Protocol: The mortality results were evaluated using the Litchfield-Wilcoxon's probit analysis method and a computer program written to conduct probit analyses.

[4] = tested on: influenza; conditions: vs control group
Protocol: Sixty-six (66) hospitalized patients between the ages 18-20 years with confirmed influenza infections were admitted into the trial. Of the patients, 12 were determined to be severely infected, and the remaining 54 seriously infected and in need of hospitalization.

[5] = Group 1A chronic pyoderma, after L-Glu-L-Trp Therapy (n = 16)

L-Glu-L-Trp
B-Lymphocytes ([1]; Athletes): 0.29 ± 0.02 ×10^9/L
B-Lymphocytes % Normal Value ([1]; Athletes): (74%)
B-Lymphocytes (%) ([1]; Athletes): 13.6 ± 0.9 %
Blasts w/Con-A ([1]; Athletes): 53.4 ± 3.9%
Blasts w/PHA ([1]; Athletes): 42.5 ± 2.5 %
C3 ([1]; Athletes): 0.8 ± 0.02 g/L
Eosinophils ([1]; Athletes): 0.23 ± 0.03 ×10^9/L
Eosinophils (%) ([1]; Athletes): 4.2 ± 0.6%
Eosinophils, % Normal Value ([1]; Athletes): (96%)
Granulocyte Cationic Proteins ([1]; Athletes): 1.1 ± 0.04
IgA ([1]; Athletes): 1.8 ± 0.1 mg/mL
IgA % Normal Value ([1]; Athletes): (138%)
IgG ([1]; Athletes): 10.2 ± 0.6 mg/mL
IgG % Normal Value ([1]; Athletes): (84%)
IgM ([1]; Athletes): 1.1 ± 0.07 mg/mL
IgM % Normal Value ([1]; Athletes): (100%)
Leukocytes ([1]; Athletes): 6.1 ± 0.2 ×10^9/L
Leukocytes % Normal Value ([1]; Athletes): (109%)
Leukocytes, Ratio Post-Treat/Pre-Treat Value ([1]; Athletes): (1.09)
Lymphocytes ([1]; Athletes): 2.22 ± 0.1 ×10^9/L
Lymphocytes % Normal Value ([1]; Athletes): (104%)
Lymphocytes, % ([1]; Athletes): 34.9 ± 4.7%
Monocytes ([1]; Athletes): 0.59 ± 0.05 ×10^9/L
Monocytes, % ([1]; Athletes): 9.4 ± 0.5%
Monocytes, % Normal Value ([1]; Athletes): (137%)
Neutrophils ([1]; Athletes): 3.01 ± 0.2 ×10^9/L
Neutrophils, % ([1]; Athletes): 49.0 ± 1.5%
Neutrophils, % Normal Value ([1]; Athletes): (115%)
Phagocytosis (yeast) ([1]; Athletes): 73.3 ± 1.5
Salivary IgM ([1]; Athletes): 0.65 g/L
Salivary Lysozyme ([1]; Athletes): 68.7 ± 1.3 %
Salivary Secretory IgA ([1]; Athletes): 0.056 ± 0.004 g/L
Serum Lysozyme ([1]; Athletes): 60.2 ± 1.6%
Serum β-Lysin ([1]; Athletes): 57.6 ± 3.2 %
T-Lymphocytes ([1]; Athletes): 1.55 ± 0.08 ×10^9/L
T-Lymphocytes % Normal Value ([1]; Athletes): (108%)
T-Lymphocytes (%) ([1]; Athletes): 70.8 ± 1.4 %
T-helper (CD4+) ([1]; Athletes): 1.25 ± 0.07 ×10^9/L
T-helper (CD4+), % ([1]; Athletes): 56.1 ± 1.3 %
T-helper (CD4+), % Normal Value ([1]; Athletes): (112%)
T-suppressor (CD8+) ([1]; Athletes): 0.12 ± 0.02 ×10^9/L
T-suppressor (CD8+), % ([1]; Athletes): 5.9 ± 0.7%
T-suppressor (CD8+), % Normal Value ([1]; Athletes): (86%)
Total Salivary IgA ([1]; Athletes): 0.55 ± 0.05 g/L
B-Lymphocytes ([1]; Controls): 0.41 ± 0.05 ×10^9/L
B-Lymphocytes % Normal Value ([1]; Controls): (85%)
B-Lymphocytes (%) ([1]; Controls): 20.1 ± 1.5%
Blasts w/Con-A ([1]; Controls): 66.8 ± 4.0 %
Blasts w/PHA ([1]; Controls): 34.1 ± 3.1%
C3 ([1]; Controls): 0.7 ± 0.03 g/L
Eosinophils ([1]; Controls): 0.22 ± 0.07 ×10^9/L
Eosinophils (%) ([1]; Controls): 4.0 ± 0.8%
Eosinophils, % Normal Value ([1]; Controls): (85%)
Granulocyte Cationic Proteins ([1]; Controls): 1.22 ± 0.1
IgA ([1]; Controls): 1.8 ± 0.2 mg/mL
IgA % Normal Value ([1]; Controls): (100%)
IgG ([1]; Controls): 12.6 ± 0.7 mg/mL
IgG % Normal Value ([1]; Controls): (104%)
IgM ([1]; Controls): 1.0 ± 0.02 mg/mL
IgM % Normal Value ([1]; Controls): (77%)
Leukocytes ([1]; Controls): 5.6 ± 0.4 ×10^9/L
Leukocytes % Normal Value ([1]; Controls): (97%)
Leukocytes, Ratio Post-Treat/Pre-Treat Value ([1]; Controls): (0.85)
Lymphocytes ([1]; Controls): 2.08 ± 0.2 ×10^9/L
Lymphocytes % Normal Value ([1]; Controls): (99%)
Lymphocytes, % ([1]; Controls): 37.8 ± 2.9%
Monocytes ([1]; Controls): 0.58 ± 0.07 ×10^9/L
Monocytes, % ([1]; Controls): 10.6 ± 1.2%
Monocytes, % Normal Value ([1]; Controls): (88%)
Neutrophils ([1]; Controls): 2.67 ± 0.3 ×10^9/L
Neutrophils, % ([1]; Controls): 47.5 ± 2.9%
Neutrophils, % Normal Value ([1]; Controls): (75%)
Phagocytosis (yeast) ([1]; Controls): 75.0 ± 1.7
Salivary IgM ([1]; Controls): 0.73 g/L
Salivary Lysozyme ([1]; Controls): 63.5 ± 3.0%
Salivary Secretory IgA ([1]; Controls): 0.066 ± 0.009 g/L
Serum Lysozyme ([1]; Controls): 50.6 ± 1.4 %
Serum β-Lysin ([1]; Controls): 46.8 ± 5.4%
T-Lymphocytes ([1]; Controls): 1.56 ± 0.1 ×10^9/L
T-Lymphocytes % Normal Value ([1]; Controls): (108%)
T-Lymphocytes (%) ([1]; Controls): 73.9 ± 1.7%
T-helper (CD4+) ([1]; Controls): 1.36 ± 0.2 ×10^9/L
T-helper (CD4+), % ([1]; Controls): 65.6 ± 2.0 %
T-helper (CD4+), % Normal Value ([1]; Controls): (136%)
T-suppressor (CD8+) ([1]; Controls): 0.08 ± 0.05 ×10^9/L
T-suppressor (CD8+), % ([1]; Controls): 4.8 ± 1.0%
T-suppressor (CD8+), % Normal Value ([1]; Controls): (100%)
Total Salivary IgA ([1]; Controls): 0.48 ± 0.1 g/L
Incidence of infection ([1]; athletes treated, two month period): 24.7%
Reduction of the rate of upper respiratory infections and illness ([1]; vs controls): 4 fold
B-Lymphocytes [2, 5]: 0.15 ± 0 ×10^9/L
B-Lymphocytes % Normal Value [2, 5]: (31%)
B-Lymphocytes (%) [2, 5]: 7 ± 3%
Basophils (%) [2, 5]: 0.01 ± 0%
Eosinophils (%) [2, 5]: 4.2 ± 1%
Erythrocyte (sed. rate mm) [2, 5]: 13.1 ± 1 mm
Erythrocytes [2, 5]: 4.2 ± 0.1 10^12/L
IgA [2, 5]: 2.7 ± 1 g/L
IgA % Normal Value [2, 5]: (143%)
IgG [2, 5]: 16.2 ± 1 g/L
IgG % Normal Value [2, 5]: (150%)
IgM [2, 5]: 1 ± 0 g/L
IgM % Normal Value [2, 5]: (65%)
Leukocytes [2, 5]: 8.7 ± 0.5 ×10^9/L
Leukocytes % Normal Value [2, 5]: (130%)
Lymphocytes [2, 5]: 2.0 ± 0.2 ×10^9/L
Lymphocytes % Normal Value [2, 5]: (71%)
Lymphocytes, % [2, 5]: 25.9 ± 2.2%
Monocytes, % [2, 5]: 4.5 ± 1%
Neutrophils, % [2, 5]: 63.8 ± 4%
T-Lymphocytes [2, 5]: 1.15 ± 0 ×10^9/L
T-Lymphocytes % Normal Value [2, 5]: (68%)
T-Lymphocytes (%) [2, 5]: 52.3 ± 5%
T-helper [2, 5]: 0.92 ± 0.09 ×10^9/L
T-helper % Normal Value [2, 5]: (70%)
T-helper (%) [2, 5]: 45.4 ± 4.9%
T-suppressor [2, 5]: 0.51 ± 0 ×10^9/L
T-suppressor % Normal Value [2, 5]: (131%)
T-suppressor (%) [2, 5]: 28.2 ± 4%
Blast Transform., Con-A ([2]; Group 1A, L-Glu-L-Trp Therapy): 62.8 ± 8 % of PBL
Blast Transform., PHA ([2]; Group 1A, L-Glu-L-Trp Therapy): 42.7 ± 7 % of PBL
Blast Transform., Staph-A ([2]; Group 1A, L-Glu-L-Trp Therapy): 85.6 ± 9 % of PBL
Survivors at 24 hr. and 30 hr. [3]: statistically significant difference in the number of survivors
Lower incidence of respiratory complications [4]: 3.5 times

Source: patent US6368788B1 (priority 1987, dated 2002)
